The numbers were not newly measured in patent US20080293652A1, “Combination of Ad-P53 and Chemotherapy for the Treatment of Tumours” (priority 2004, published 2008), which cites them from elsewhere.

The conditions of data set [1]: for part of the dose excreted / detected intact in the urine: in vivo.
The test system of the next data set is multiple myeloma. The conditions noted are these: oral administration.

Molecules are shown by their SMILES. Numbered stars: 1 amine (or outer) side, 2 acyl side, 3 side chain; on linkers, the order of the positions; unused ones are H or OH. Bridge positions count the residues as written; N and C are the ends. Square brackets hold non-standard residues; d marks the D form. Peptide text beside a SMILES is read from it. I, II: the chains in the order shown. Actinocin(9to1) = Cc1c2oc3c(C)ccc(C(=O)[*:1])c3nc-2c(C(=O)[*:2])c(N)c1=O; NMeV = CN[C@H](C(=O)O)C(C)C; Sar = CNCC(=O)O

For `CC[C@]1(O)C[C@@H]2CN(CCc3c([nH]c4ccccc34)[C@@](C(=O)OC)(c3cc4c(cc3OC)N(C)[C@H]3[C@@](O)(C(=O)OC)[C@H](OC(C)=O)[C@]5(CC)C=CCN6CC[C@]43[C@@H]65)C2)C1` [Vinblastine], in data set [1], the “part of the dose excreted / detected intact in the urine” value is given as “Approximately 15%”. On to `CC[C@]1(O)C[C@H]2CN(CCc3c([nH]c4ccccc34)[C@@](C(=O)OC)(c3cc4c(cc3OC)N(C=O)[C@H]3[C@@](O)(C(=O)OC)[C@H](OC(C)=O)[C@]5(CC)C=CCN6CC[C@]43[C@@H]65)C2)C1` [Vincristine], for which the “terminal half-life (clearance from plasma)” value in data set [1] (multiphasic clearance) is on record as “about 24 hours”. Consider `N[C@@H](Cc1ccc(N(CCCl)CCCl)cc1)C(=O)O` [Melphalan, 4-[bis(2-chloroethyl)amino]-L-phenylalanine], for which the “part of patients showing a favorable response” value in the data set on multiple myeloma is reported as “one third to one half”.

As for `Cc1c2oc3c(C)ccc(C(=O)N[C@@H]4C(=O)N[C@H](C(C)C)C(=O)N5CCC[C@H]5C(=O)N(C)CC(=O)N(C)[C@@H](C(C)C)C(=O)O[C@@H]4C)c3nc-2c(C(=O)N[C@@H]2C(=O)N[C@H](C(C)C)C(=O)N3CCC[C@H]3C(=O)N(C)CC(=O)N(C)[C@@H](C(C)C)C(=O)O[C@@H]2C)c(N)c1=O` [Actinomycin D] (I: T[dV]P[Sar][NMeV] / II: T[dV]P[Sar][NMeV]; ester I:1-I:C, II:1-II:C; linker I:N-II:N via Actinocin(9to1)), the “part of the dose excreted / detected intact in the urine” value in data set [1] was 10%.
